From the supplement of paper PMC10949913

How the values were obtained:
Experiment in all cases: area under concentration-response curve (viability) (AUC (a.u.)); higher = less active
Settings in all cases: 48 h
CU-ACC1 = system: CU-ACC1
Method in brief: (§1)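 Cells from three adrenocortical carcinoma lines were seeded at 500–1,000 cells/well in 5 µL medium in 1,536-well plates. Each library compound was added as 23 nL at 11 concentrations, and after 48 h CellTiter-Glo was added for 15 minutes at room temperature before reading luminescence. Plate-wise normalisation to vehicle and empty-well controls preceded curve fitting. AC50 and area under the curve were calculated only for inhibitory or non-responding curve classes.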

CU-ACC2 = system: CU-ACC2
Method in brief: as §1

NCI-H295R = system: NCI-H295R
Method in brief: as §1

| SMILES | area under concentration-response curve (CU-ACC1) | area under concentration-response curve (CU-ACC2) | area under concentration-response curve (NCI-H295R) |
| --- | --- | --- | --- |
| CN1CCN(C(=O)c2ccc(-c3ccc4c(C=O)c(O)ccc4c3)s2)CC1 | 499 | 612 | 556 |
| CCC(=O)NC[C@H](Cc1ccc(OCCc2nc(-c3ccccc3)oc2C)cc1)N/C(C)=C\C(=O)c1ccc(C(F)(F)F)cc1 | 498 | 548 | 487 |
| CC(C(=O)O)c1ccc(-c2ccccc2)c(F)c1 (configuration not stated) | 469 | 479 | 470 |
| Cc1cnc(C(=O)O)c[n+]1[O-] | 513 | 579 | 526 |
| CC(C)C[C@H](NC(=O)[C@@H](O)[C@H](N)Cc1ccccc1)C(=O)O | 459 | 571 | 494 |
| [NH2][Pt]([NH2])([Cl])[Cl] | 528 | 576 | 514 |
| CC(C)Cn1cnc2c(N)nc3ccccc3c21 | 640 | 683 | 630 |
| O=C(NCc1ccncc1)C12C[C@H]3C[C@@H](C1)CC(c1ccc(Cl)cc1)(C3)C2 | 486 | 576 | 468 |
| CN[C@@H](C)C(=O)N[C@H]1CN(C(=O)CC(C)C)CC[C@H]2CC[C@@H](C(=O)NC(c3ccccc3)c3ccccc3)N2C1=O | 338 | 372 | 420 |
| O=C1Cc2cc(C(=O)NC3C[C@H]4CC[C@@H](C3)N4[S+](=O)([O-])CC3CCN(CCCC(F)(F)F)CC3)c(Cl)cc2N1 (some centres not stated) | 525 | 611 | 539 |
| C[C@]\1(CCS\C(=N1)N)C2=CC(=C(F)C=C2F)C3=CN=CN=C3 | 478 | 544 | 509 |
| O=C1CCCC(=O)C1C(=O)c1ccc(C(F)(F)F)cc1[N+](=O)[O-] | 565 | 576 | 545 |
| CC(C)C(C)/C=C/C(C)C1CCC2C3=CC=C4CC(O)CCC4(C)C3CCC21C (configuration not stated) | 521 | 636 | 597 |
| CCCCC(=O)O[C@@]1([C@@H](C)C[C@H]2[C@@H]3CCC/4=C/C(=O)/C=C\[C@]4(C)[C@@]3(F)[C@@H](O)C[C@]12C)C(=O)CO | 455 | 555 | 462 |
| C[C@H]1CC2[C@@H]3CCC/4=C/C(=O)/C=C\[C@]4(C)[C@@]3(F)[C@@H](O)C[C@]2(C)[C@@]1(O)C(=O)CO (some centres not stated) | 477 | 572 | 551 |
| COC1=CC=C(C=C1)C(=O)C2CCN(CC2)CC(=O)N(CC3CC3)C\C4=N\C5=C(\COCC5)C(=O)N4 | 495 | 564 | 520 |
| C[C@H]1O[C@H](O[C@H]2[C@H](O)[C@@H](O)[C@@H](O[C@H]3[C@H](O)[C@@H](O)C(O)O[C@@H]3CO)O[C@@H]2CO)[C@H](O)[C@@H](O)[C@@H]1N[C@H]1C=C(CO)[C@@H](O)[C@H](O)[C@H]1O (some centres not stated) | 414 | 482 | 447 |
| CC(=O)NC[C@H]1CN(c2ccc(N3CCOCC3)c(F)c2)C(=O)O1 | 565 | 700 | 612 |
| O=C1NC(=O)/C(=C/c2ccc3c(c2)OC(F)(F)O3)S1 | 512 | 599 | 537 |
| COc1cc(OC)c(C(=O)CCCN2CCCC2)c(OC)c1 | 440 | 500 | 465 |
| CC[C@H](C)C(=O)O[C@H]1C[C@@H](C)\C=C2\C=C/[C@H](C)[C@H](CC[C@@H]3C[C@@H](O)CC(=O)O3)[C@@H]12 | 576 | 647 | 576 |
| COc1cc2cc(c1Cl)N(C)C(=O)C[C@H](OC(=O)C(C)C)[C@]1(C)O[C@@H]1[C@H](C)[C@@H]1C[C@@](O)(NC(=O)O1)[C@H](OC)/C=C/C=C(\C)C2 | 505 | 440 | 346 |

| SMILES | area under concentration-response curve (CU-ACC1) | area under concentration-response curve (CU-ACC2) | area under concentration-response curve (NCI-H295R) |
| --- | --- | --- | --- |
| C[S+](=O)([O-])c1ccc(C(=O)Nc2ccc(Cl)c(-c3ccccn3)c2)c(Cl)c1 | 544 | 674 | 591 |
| CNc1nc(Nc2cnn([C@H]3CCN(C4COC4)C[C@@H]3F)c2Cl)ncc1C(F)(F)F | 562 | 604 | 566 |
| C[C@]12COC(=O)C[C@@H]1CC[C@@H]1[C@@H]2CC[C@@]2(C)[C@H]1CC[C@]2(C)O | 448 | 482 | 447 |
| Nc1ncnc2nc(-c3ccc(N4CCOCC4)nc3)cc(-c3cccc(Br)c3)c12 | 492 | 525 | 459 |
| O=c1cc(O)c(Cl)c[nH]1 | 558 | 641 | 586 |
| COc1ccc(Cl)c(Nc2nc3ccccc3nc2N[S+](=O)([O-])c2cccc(NC(=O)C(C)(C)N)c2)c1 | 459 | 536 | 439 |
| COc1ccc(C2CNC(=O)C2)cc1OC1CCCC1 (configuration not stated) | 451 | 538 | 501 |
| Nc1nc(OC(c2ccc(-c3cccc(F)c3)cc2)C(F)(F)F)cc(-c2ccc(C[C@@H](N)C(=O)O)cc2)n1 (some centres not stated) | 464 | 488 | 449 |
| CC[C@H](NC(C)C)[C@H](O)C1=CC=C(O)C2=C1\C=C/C(=O)N2 | 566 | 650 | 564 |
| CCC(=O)O[C@@]1(CC[C@H]2[C@@H]3CCC/4=C/C(=O)CC[C@]4(C)[C@H]3CC[C@]12C)C(=O)CO | 508 | 585 | 518 |
| CC1=C(F)C=CC(=C1)N2C(=O)\C=C/C3=C2C4=C([NH]C=C4)N=C3 | 519 | 509 | 527 |
| CO[C@H]1O[C@@H]2O[C@@]3(C)CC[C@H]4[C@H](C)CC[C@@H]([C@H]1C)[C@@]24OO3 | 470 | 553 | 506 |
| COc1ccc(CCC(=O)Nc2nc3ccc(Cl)cc3s2)cc1OC | 575 | 600 | 563 |
| Cc1nc(C)c(CN2CCN(C(c3ccc(F)cc3)c3ccc(F)cc3)CC2)nc1C | 481 | 563 | 471 |
| NNCCc1ccccc1.O=S(=O)(O)O | 450 | 530 | 486 |
| NC(=O)c1ccc(-c2nc(-c3ccc4c(c3)OCO4)c(-c3ccccn3)[nH]2)cc1 | 286 | 633 | 509 |
| C=CC(=O)Nc1cc(N2CCN(CC)CC2)ccc1Nc1cc(N(C)C(=O)Nc2c(Cl)c(OC)cc(OC)c2Cl)ncn1 | 537 | 566 | 495 |
| N#Cc1ccc(N(Cc2ccc(Br)cc2)n2cnnc2)cc1 | 413 | 633 | 598 |
| CCCCCCCCCC(=O)N[C@@H](Cc1c[nH]c2ccccc12)C(=O)N[C@H](CC(N)=O)C(=O)N[C@@H](CC(=O)O)C(=O)N[C@@H]1C(=O)NCC(=O)N[C@@H](CCCN)C(=O)N[C@@H](CC(=O)O)C(=O)N[C@H](C)C(=O)N[C@@H](CC(=O)O)C(=O)NCC(=O)N[C@H](CO)C(=O)N[C@@H]([C@@H](C)CC(=O)O)C(=O)N[C@@H](CC(=O)c2ccccc2N)C(=O)O[C@@H]1C | 485 | 606 | 496 |
| CC1=NN(c2ccc(C(=O)O)cc2)C(=O)/C1=C/c1ccc(-c2cc(C)c(C)cc2[N+](=O)[O-])o1 | 556 | 661 | 585 |
| NC[C@H]1CC[C@H](C(=O)O)CC1 | 497 | 586 | 452 |
| CC(C)[C@H](O)C(=O)N[C@@H](C)C(=O)N[C@@H]1C(=O)N(C)CCc2ccccc21 | 522 | 577 | 575 |
